Results on two compounds are retold here after patent US11421349B2, “Photoactivatable fibers and fabric media” (KLOX TECHNOLOGIES INC., priority 2014, dated 2022).

Common to all, as to format: physicochemical
Data set [1] can be described thus: Qualitative analysis of dental fiber doping (fluorescence under blue lamp). From the text:
Commercially available dental fibers were dipped into solutions of Eosin […], or 0.1 g/L) for 10 seconds. The fibers were taken out and observed for color, then put under a blue lamp and the fluorescence was observed qualitatively. […] Dental fibers were dipped into solutions of fluorescein (50 […]) for 10 seconds. The fibers were then taken out and observed for color, then put under a blue lamp and the fluorescence was observed qualitatively. […] Dental fibers were dipped into solutions of fluorescein:Eosin […] total chromophore) solution for 10 seconds again. The fibers were then taken out and observed for color, then put under a blue lamp and the fluorescence was observed qualitatively.

Data set [2] is described as follows: Effect of addition of a lubricant (lurol oil) on the fluorescence emitted from Eosin Y solution. The note with it: 320 μL lurol oil added to 2 mL of 109 μg/g Eosin Y in water. Here is the method:
The fluorescence of these two solutions was measured to determine if the lurol oil had any effect (FIG. 4).

A short description of data set [3]: Effect of addition of a lubricant on the fluorescence emission of photoactivatable (doped) fibers. Conditions: same concentration, lurol oil added, FIG. 5B. From the text: In the case of low concentrations of chromophore it can slightly red shift, and reduces bleaching time considerably. In higher concentrations of chromophore it red shifts, as well as increase fluorescence. The most effect seems to be around 10 g/L of lurol oil. Initially the fluorescence of Eosin Y doped fibers was 0.01 (FIG. 5A), but with the lurol oil added the fluorescence is boosted to 0.7. A comparison was done of Eosin Y and Fluorescein at the same concentration with lurol oil added.

Molecules are shown by their SMILES.

On to `O=C([O-])c1ccccc1-c1c2cc(Br)c(=O)c(Br)c-2oc2c(Br)c([O-])c(Br)cc12.[Na+].[Na+]` [Eosin Y, 2′,4′,5′,7′-tetrabromo-fluorescein, dianion], for which the “fluorescence observed qualitatively under blue lamp” value in data set [1] (commercial dental fibers dipped 10 seconds, 300-100 g/L solutions) is “little fluorescence”; in data set [1] (dental fibers dipped 10 seconds, 10 g/L solution), “significant increase in fluorescence”; in data set [1] (dental fibers dipped 10 seconds, 50 g/L solution) it was “showed fluorescence”. In addition, the “photodegradation of Eosin Y solution with lurol oil” value in data set [2] is “barely photodegraded”. Further, in data set [2], the “shift of the fluorescence of the solution with lurol oil” value is given as “red shifted”. The “fluorescence of Eosin Y solution with lurol oil versus without” value in data set [2] (FIG. 4) is recorded as “almost twice as fluorescent”.
Regarding `O=C1OC2(c3ccc(O)cc3Oc3cc(O)ccc32)c2ccccc21` [fluorescein], in data set [3], the “photo-degradation compared with Eosin Y” value was “photo-degrades faster”.
